Results: patent US7371766B2, “Curcumin analogs with anti-tumor and anti-angiogenic properties” (Emory University, priority 1999, dated 2008)

How the values were obtained:
RPMI-7951 human melanoma = assay: Neutral Red Assay, cell viability, RPMI-7951; details: RPMI-7951, DMSO = 100
Procedure: (§1) RPMI-795 1, MDA-MB-231 and MDA-MB-435 cell lines were cultured in MEM-alpha medium (GIBCO-BRL, Long Island, N.Y.) containing 10% fetal bovine serum (RPMI-7951, MDA-MB-231) or 5% FBS (MDA-MB-435) at 37° C. and under 5% CO2/95% air. […] The cells were cultured in 48 well plates in all of the experiments described.
Neutral Red Assay was utilized to determine the effect of the compounds of the present invention on cell viability. Neutral Red was purchased from GIBCO-BRL (Long Island, N.Y.). Cells were plated at a concentration of 20,000 cells/well and cultured overnight. Compounds or vehicle (DMSO 0.1%) were then added and the plates were incubated for 72 hours. Supernatant from each well was either aspirated or collected and media containing Neutral Red (GIBCO-BRL, Long Island, N.Y.) at a concentration of 15 μl/ml was then added to each well. The plates were then incubated at 37° C. for 30 minutes. Next, the cells were washed with twice with PBS and alcoholic-HCl (0.5N—HCl/35% ethanol) was added to each well. The plates were then placed on a plate shaker until all residues were solubilized (pink color). The solubilized mixtures were then transferred to a 96 well plate and the absorbances were read on a micro-test plate reader at a wavelength of 570 nm.
Cell viability was determined by Neutral Red Assay.

[1] = system: Vascular Endothelial Growth Factor (VEGF) production by human melanoma cell line RPMI-7951; assay: VEGF ELISA, RPMI-7951; details: RPMI-7951
Procedure: as §1
A VEGF enzyme-linked immunosorbent assay (ELISA) was utilized to determine the effect of the compounds of the present invention on VEGF production of a variety of human cancer cell lines. For the VEGF assay, cells were plated at a concentration of 80,000 cells/well and cultured overnight. Compounds or vehicle (DMSO 0.1%) were then added and the plates were incubated for 72 hours. Supernatant was then collected from each well and frozen in a −80° C. freezer until needed. Cell viability was determined by Neutral Red Assay. VEGF ELISA Kit (R & D, Minneapolis, Minn.) was used to determine the amount of VEGF in the culture supernatants. The ELISA was carried out according to the manufacturer's procedure.

[2] = system: Vascular Endothelial Growth Factor (VEGF) production by human prostate cancer cell line DU-145; assay: VEGF ELISA, DU-145; assay type: cell-based; details: for VEGF (% of DMSO): DMSO = 100%
[3] = system: Vascular Endothelial Growth Factor (VEGF) production by human prostate cancer cell line PC-3; assay: VEGF ELISA, PC-3; assay type: cell-based; details: for VEGF (% of DMSO): DMSO = 100%
[4] = system: Tissue Factor (TF) production by human melanoma cell line RPMI-7951; assay: TF ELISA, RPMI-7951; assay type: cell-based
Procedure: IMUBIND Tissue Factor ELISA Kit (American Diagnostica Inc, Greenwich, Conn.) was used to determine TF concentration in each sample. The ELISA was carried out according to manufacturer's procedure.

[5] = 20 μM, mean of triplicate and S.D., DMSO 18760 ± 2633
[6] = Table 4, 20 μM, mean of triplicate and S.D.
[7] = 20 μM, mean of triplicate and S.D., DMSO 2103 ± 100
[8] = Table 5, 20 μM, DMSO control 7054
[9] = 5 μM, DMSO control 4197 (EF-25: 1045)
[10] = Table 5, 5 μM, DMSO control 7054

Row | Compound | Cell Viability (RPMI-7951 human melanoma; 20 μM) | VEGF ([1]; 20 μM, DMSO = 100) | VEGF (% of DMSO) ([2]; 20 μM) | VEGF [2, 5] | VEGF ([2]; Table 4, 20 μM, DMSO = 100) | VEGF [2, 6] | VEGF (% of DMSO) ([3]; 20 μM) | VEGF [3, 7] | VEGF ([3]; Table 4, 20 μM, DMSO = 100) | VEGF [3, 6] | TF ([4]; 20 μM, DMSO = 100) | TF [4, 8] | Cell Viability (RPMI-7951 human melanoma; 5 μM) | VEGF ([1]; 5 μM, DMSO = 100) | VEGF [1, 9] | VEGF ([1]; 20 μM, DMSO control 4197) | TF ([4]; 5 μM, DMSO = 100) | TF [4, 10]
1 | [O-][S+](/C=C\c1ccccc1)/C=C/c1ccccc1 (racemic) [EF14, E,Z3,5-Bisbenzylidenesulfoxide] | 86% | 36% | – | – | – | – | – | – | – | – | – | – | – | – | – | – | – | –
2 | COc1ccc(CCC(=O)CCc2ccc(OC)c(OC)c2)cc1OC [A] | – | – | (142%) | 26565 ± 9818 pg/mL | 142% | 26565 ± 9818 pg/mL | (82%) | 1729 ± 59 pg/mL | 82% | 1729 ± 59 pg/mL | – | – | – | – | – | – | – | –
3 | COc1ccc(CCC(=O)CCc2ccc(OC)cc2)cc1 [BA-1] | – | – | – | – | – | – | – | – | – | – | 95% | 6669 pg/mL | – | – | – | – | – | –
4 | COc1ccc(C=CC(=O)c2ccccc2)cc1OC [BA-3] | 102% | 48% | – | – | – | – | – | – | – | – | 30% | 2088 pg/mL | 93% | 116% | 4860 pg/mL | 2035 pg/mL | – | –
5 | COc1ccc(C=CC(=O)C=Cc2ccc(OC)cc2)cc1 [BA-4] | 84% | 80% | – | – | – | – | – | – | – | – | 30% | 2120 pg/mL | 90% | 112% | 4708 pg/mL | 3348 pg/mL | 100% | 7043 pg/mL
6 | COc1ccccc1C1CC(=O)CC(c2ccccc2OC)O1 (stereo not shown) [BA-8] | – | – | (218%) | 40883 ± 6639 pg/mL | 218% | 40883 ± 6639 pg/mL | (78%) | 1648 ± 229 pg/mL | 78% | 1648 ± 229 pg/mL | – | – | – | – | – | – | – | –
7 | COc1ccc(CCC(O)CCc2ccc(OC)c(OC)c2)cc1OC [B] | – | – | (82%) | 15321 ± 5607 pg/mL | 82% | 15321 ± 5607 pg/mL | (99%) | 2168 ± 279 pg/mL | 103% | 2168 ± 279 pg/mL | – | – | – | – | – | – | – | –
8 | COc1ccc(CC2CCCC(Cc3ccc(OC)c(OC)c3)C2=O)cc1OC (stereo not shown) [C] | – | – | (110%) | 20559 ± 9224 pg/mL | 110% | 20559 ± 9224 pg/mL | (82%) | 1734 ± 397 pg/mL | 82% | 1734 ± 397 pg/mL | – | – | – | – | – | – | – | –
9 | COc1cc(CC2CCCC(Cc3ccc(O)c(OC)c3)C2O)ccc1O (stereo not shown) [Compound A231L] | 77% | 25% | – | – | 149% | 27927 ± 4466 pg/mL | – | – | 80% | 1687 ± 250 pg/mL | – | – | – | – | – | – | – | –
10 | COc1cc(CC2CCCC(Cc3ccc(O)c(OC)c3)C2=O)ccc1O (stereo not shown) [Compound A231U] | 80% | 34% | (149%) | 27875 ± 4446 pg/mL | 149% | 27875 ± 4446 pg/mL | (47%) | 984 ± 349 pg/mL | 47% | 984 ± 349 pg/mL | 85% | 5981 pg/mL | – | – | – | – | 78% | 5473 pg/mL
11 | COc1cc(CCC(=O)CC(=O)CCc2ccc(O)c(OC)c2)ccc1O [Compound A232] | 78% | 40% | – | – | 135% | 25308 ± 4722 pg/mL | – | – | 93% | 1955 ± 437 pg/mL | – | – | – | – | – | – | – | –
12 | COc1ccc(C=CC(O)CCc2ccc(OC)c(OC)c2)cc1OC (stereo not shown) [Compound A239] | 86% | 40% | – | – | 145% | 27229 ± 2148 pg/mL | – | – | 80% | 1678 ± 293 pg/mL | – | – | – | – | – | – | – | –
13 | O=C(NCc1ccccc1)NCc1ccccc1 [Compound A271a] | – | – | (129%) | 24190 ± 2160 pg/mL | 129% | 24190 ± 2160 pg/mL | (57%) | 1196 ± 438 pg/mL | 57% | 1196 ± 438 pg/mL | – | – | – | – | – | – | – | –
